Source: article PMC12974487, “Inhibition of FicD-mediated AMPylation and deAMPylation by isoprenoid diphosphates” (Proceedings of the National Academy of Sciences of the …, 2026)
“Also recorded” adds a separate entry of the source.

Experiments:
AvrB = AvrB (Pseudomonas savastanoi pv. glycinea, UniProt P13835); experiment: Rhamnosylation of GST-Rin4 by AvrB; format: biochemical, Pseudomonas syringae
Description: Finally, we explored the inhibitory effects of GPP/FPP on other Fido proteins to see if these metabolites could serve as generic inhibitors of Fido domains. To test this specificity, we performed in vitro activity assays with GPP/FPP and two constitutively active Fido proteins from bacteria: VopS from Vibrio parahaemolyticus ([25]) and AvrB from Pseudomonas syringae ([30]).
(250mM Tris pH 6.8, 10% Sodium dodecyl sulfate, 50% glycerol, 50mM DTT, 0.05% Bromophenol blue) and heated at 98°C for 5 minutes.
Rhamnosylation assays were performed as previously described (2). Briefly, AvrB and GST-Rin4 were combined in the presence of GPP or FPP, where applicable. Reactions were started by the addition of UDP-Rhamnose at a final concentration of […] and reactions were incubated for 1 hour at room temperature. Reactions were stopped by the addition of 5X SDS sample buffer […]
Equal volumes of samples suspended in 5X SDS sample buffer were resolved on hand-cast 10% 1.5mm Tris-Glycine gels with the BioRad Mini-PROTEAN Tetra Cell system. […]
Intact mass analysis of proteins was performed by the UT Southwestern Proteomics Core. Intact protein samples were analyzed by LC/MS, using a Sciex X500B QTOF mass spectrometer operating in positive ion mode, coupled to an Agilent 1290 Infinity II HPLC. […]

FicD^WT = biological target: T1, FicD^WT (Homo sapiens, UniProt Q9BVA6); experiment: In vitro deAMPylation of Δ26hBiP^T229A-AMP by FicD^WT (Western blot); format: biochemical; conditions: for inhibition of deAMPylation activity of FicD^WT: 100 μM metabolite, 5 mM MgCl2; for concentration at which inhibition of deAMPylation started: dose-response Western blot, FicD^WT
T1 construct: soluble ER luminal domain (residues 105 to 458) of wild-type human FicD; 6xHis-Sumo (N, cleaved yes); made in house; host or cells: Rosetta(DE3) E. coli
T1 sequence (Q9BVA6 105-458): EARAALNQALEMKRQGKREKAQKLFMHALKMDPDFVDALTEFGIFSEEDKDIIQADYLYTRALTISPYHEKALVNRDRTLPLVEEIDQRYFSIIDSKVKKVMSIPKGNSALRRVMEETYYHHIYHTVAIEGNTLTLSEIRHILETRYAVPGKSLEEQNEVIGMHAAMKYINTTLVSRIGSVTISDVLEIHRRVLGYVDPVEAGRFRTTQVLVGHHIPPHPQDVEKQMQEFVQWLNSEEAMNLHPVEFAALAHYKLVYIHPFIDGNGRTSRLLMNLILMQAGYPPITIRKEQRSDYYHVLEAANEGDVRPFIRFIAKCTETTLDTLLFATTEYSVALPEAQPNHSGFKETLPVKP
Text: We next sought to assess the effects of FPP, GPP, and isoprenoid analogues on FicD activity. To accurately judge the effects of small molecules on FicD AMPylation activity, we used the ATPase defective BiP^T229A mutant as substrate ([22], [49], [50]). Loss of ATP hydrolysis by the BiP mutant ensures: 1. conformational homogeneity of the BiP protein substrate; 2. lack of BiP competition for the ATP substrate; and 3. no production of ADP, a competitive inhibitor for ATP. In addition, we deleted the first 25 amino acids of BiP for ease with its purification and solubility. […]
For deAMPylation assays with FicD and BiP, Δ26hBiPT229A was in-vitro AMPylated by […]
5mM MgCl2, 500uM ATP, 0.5% CHAPS, 1mM DTT. After one hour of incubation at 30-37C, the entire reaction mix was transferred into an Amicon 0.5mL 50kDa MWCO concentrator (cat no.
7.4/150mM NaCl/10% glycerol/1mM DTT was added to the concentrated AMPylation reaction and then spun down again at 14,000 x g at 4C for 5-10 minutes. This step was repeated four times to buffer exchange AMPylated Δ26hBiPT229A.
Δ104hFicDWT and Δ26hBiPT229A-AMP were combined at a ratio of 1:80 in buffer containing 25mM HEPES pH 7.4, 100mM KCl, 5mM MgCl2, 1mM DTT and the indicated small molecule where applicable. Reactions were incubated at 37C for 1 hour and stopped by the addition EDTA. 5X SDS sample buffer (250mM Tris pH 6.8, 10% Lithium dodecyl sulfate, 50% glycerol, 50mM DTT, 0.05% Bromophenol blue) was then added to the reactions and reactions were heated for 5 minutes at […]

Chain of AvrB (P13835 whole entry, the tested form may be a part): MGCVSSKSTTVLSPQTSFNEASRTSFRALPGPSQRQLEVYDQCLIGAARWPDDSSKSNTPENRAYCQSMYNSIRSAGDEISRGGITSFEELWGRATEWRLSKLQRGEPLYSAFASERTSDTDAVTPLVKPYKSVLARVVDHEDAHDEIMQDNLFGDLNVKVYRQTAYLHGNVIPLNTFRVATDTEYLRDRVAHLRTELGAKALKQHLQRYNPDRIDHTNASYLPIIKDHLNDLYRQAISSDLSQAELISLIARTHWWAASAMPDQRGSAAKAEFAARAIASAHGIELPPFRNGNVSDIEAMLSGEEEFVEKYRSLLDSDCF

Structure (SMILES)	effect on rhamnosylation activity of AvrB (AvrB)	inhibition of deAMPylation activity of FicD^WT (FicD^WT)	concentration at which inhibition of deAMPylation started (FicD^WT)	apparent EC50 of inhibition of deAMPylation (FicD^WT; substrate exceeds FPP by two to three orders of magnitude)
CC(C)=CCC/C(C)=C/COP(=O)(O)OP(=O)(O)O [GPP, geranyl-pyrophosphate]	Neither GPP nor FPP affected	inhibited	5 µM	–
CC(C)=CCC/C(C)=C/CC/C(C)=C/COP(=O)(O)OP(=O)(O)O [FPP, farnesyl-pyrophosphate]	Neither GPP nor FPP affected; also recorded: not inhibited	inhibited	1 µM	low micromolar range
